Assay results from patent US12459957B2, “Therapeutic compounds and methods” (GENENTECH, INC., priority 2021, dated 2025).
Entries after “also recorded” stand apart in the source; their conditions may differ.

What was measured:
[1] = tested on: neutrophils (PMA-stimulated ROS); experiment: ROS detection assay (ROS-Glo, H2O2); assay type: cell-based; details: Neutrophil; human neutrophils, 30 min preincubation, 50 nM PMA for 30 min
Protocol: ROS were measured in neutrophils using the ROS-Glo bioluminescent assay (Promega) for the direct detection of H2O2. Neutrophils were isolated from fresh human blood using a biphasic Histopaque gradient as described here. Cells (100 uL per well) were plated in 96-well plates at a density of 200,000 cells/mL in high glucose DMEM medium. Cells were preincubated with either DMSO vehicle or compounds (10-point dilution curve starting at 2 uM with 3-fold serial dilution) for 30 min, and then stimulated with 50 nM PMA for 30 min. Luminescence, after the addition of H2O2 substrate solution for 20 min, and then ROS-Glo detection solution for 20 min, was recorded on a luminescence plate reader. The fifty percent inhibitory concentration (IC50) was determined with GraphPad Prism by plotting the assay output (RLU) versus the logarithm of the compound concentration using a non-linear sigmoid with variable slope algorithm with the default curve-fitting parameters in the Prism software.

[2] = tested on: neutrophils (PMA-stimulated NETosis); experiment: Quantification of NETosis using SYTOX Green; assay type: cell-based, human; details: for NETosis (qualitative): polymorphonuclear leukocytes, FIG. 1
Source text: Semi-automated analysis of both phase and fluorescence images of SYTOX Green-stained neutrophils used a MATLAB algorithm. Total cells were counted by scoring phase standard deviation and radial symmetry. NETosis was classified in cells by measuring the DNA area in the fluorescence image and comparing with a select internal training set for each experiment. Unstimulated cells and PMA-stimulated, pyocyanin-inhibited cells served as negative controls. PMA-stimulated cells served as a positive control. NET-forming cells are presented as a percentage of total cells.

[3] = target: T1, phosphofructokinase-1 muscle type (PFKM) (Homo sapiens, UniProt P08237); experiment: PFKM activation; assay type: biochemical
T1 sequence (P08237 1-780): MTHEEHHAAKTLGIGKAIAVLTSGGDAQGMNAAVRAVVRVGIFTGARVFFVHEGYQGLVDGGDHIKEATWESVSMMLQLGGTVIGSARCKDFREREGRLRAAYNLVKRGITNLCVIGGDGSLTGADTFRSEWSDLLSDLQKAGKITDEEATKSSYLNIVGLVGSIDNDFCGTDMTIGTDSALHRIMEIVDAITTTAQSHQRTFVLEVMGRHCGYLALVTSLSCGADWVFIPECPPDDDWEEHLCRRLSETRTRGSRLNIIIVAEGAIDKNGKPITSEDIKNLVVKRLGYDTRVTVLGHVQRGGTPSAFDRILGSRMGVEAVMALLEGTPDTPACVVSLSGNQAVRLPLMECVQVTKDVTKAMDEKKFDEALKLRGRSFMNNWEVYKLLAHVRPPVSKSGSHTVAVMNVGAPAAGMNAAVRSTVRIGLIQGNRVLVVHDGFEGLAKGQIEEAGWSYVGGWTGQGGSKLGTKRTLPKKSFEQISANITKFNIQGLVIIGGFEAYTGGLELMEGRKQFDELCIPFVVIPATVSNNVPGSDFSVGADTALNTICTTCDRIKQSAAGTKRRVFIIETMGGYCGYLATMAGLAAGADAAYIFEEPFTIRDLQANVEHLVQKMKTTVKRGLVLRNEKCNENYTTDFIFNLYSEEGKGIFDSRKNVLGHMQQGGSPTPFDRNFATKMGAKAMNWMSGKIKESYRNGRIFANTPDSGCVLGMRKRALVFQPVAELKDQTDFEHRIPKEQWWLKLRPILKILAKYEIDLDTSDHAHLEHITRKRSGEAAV

[4] = target: T2, phosphofructokinase-1 liver type (PFKL) (Homo sapiens, UniProt P17858); experiment: PFKL activation; assay type: biochemical
T2 sequence (P17858 1-780): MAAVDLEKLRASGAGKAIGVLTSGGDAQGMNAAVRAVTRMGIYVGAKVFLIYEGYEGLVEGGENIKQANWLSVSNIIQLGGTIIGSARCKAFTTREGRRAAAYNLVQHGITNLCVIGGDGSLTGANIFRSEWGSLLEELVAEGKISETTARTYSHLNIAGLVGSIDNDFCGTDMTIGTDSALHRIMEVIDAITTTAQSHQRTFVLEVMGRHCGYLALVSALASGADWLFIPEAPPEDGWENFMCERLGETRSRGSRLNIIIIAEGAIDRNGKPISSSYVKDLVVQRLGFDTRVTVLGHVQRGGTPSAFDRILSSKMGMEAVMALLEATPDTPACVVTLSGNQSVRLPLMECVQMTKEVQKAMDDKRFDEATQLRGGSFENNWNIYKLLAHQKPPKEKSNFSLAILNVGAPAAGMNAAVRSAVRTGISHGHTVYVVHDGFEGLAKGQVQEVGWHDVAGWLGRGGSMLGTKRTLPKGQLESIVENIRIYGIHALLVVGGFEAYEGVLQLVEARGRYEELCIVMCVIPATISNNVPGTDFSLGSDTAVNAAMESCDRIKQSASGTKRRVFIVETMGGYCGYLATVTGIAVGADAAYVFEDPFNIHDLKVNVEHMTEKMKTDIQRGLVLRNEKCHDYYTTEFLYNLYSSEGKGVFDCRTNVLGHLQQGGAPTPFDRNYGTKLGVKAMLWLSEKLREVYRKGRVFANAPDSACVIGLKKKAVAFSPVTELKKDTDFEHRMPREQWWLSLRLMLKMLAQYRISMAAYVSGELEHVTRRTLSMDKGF

[5] = tested on: NOX2-dependent oxidative burst in neutrophils; experiment: NOX2-dependent oxidative burst in neutrophils; assay type: cell-based
[6] = target: T3, phosphofructokinase-1 platelet type (PFKP) (Homo sapiens, UniProt Q01813); experiment: PFKP activation; assay type: biochemical
T3 sequence (Q01813 1-784): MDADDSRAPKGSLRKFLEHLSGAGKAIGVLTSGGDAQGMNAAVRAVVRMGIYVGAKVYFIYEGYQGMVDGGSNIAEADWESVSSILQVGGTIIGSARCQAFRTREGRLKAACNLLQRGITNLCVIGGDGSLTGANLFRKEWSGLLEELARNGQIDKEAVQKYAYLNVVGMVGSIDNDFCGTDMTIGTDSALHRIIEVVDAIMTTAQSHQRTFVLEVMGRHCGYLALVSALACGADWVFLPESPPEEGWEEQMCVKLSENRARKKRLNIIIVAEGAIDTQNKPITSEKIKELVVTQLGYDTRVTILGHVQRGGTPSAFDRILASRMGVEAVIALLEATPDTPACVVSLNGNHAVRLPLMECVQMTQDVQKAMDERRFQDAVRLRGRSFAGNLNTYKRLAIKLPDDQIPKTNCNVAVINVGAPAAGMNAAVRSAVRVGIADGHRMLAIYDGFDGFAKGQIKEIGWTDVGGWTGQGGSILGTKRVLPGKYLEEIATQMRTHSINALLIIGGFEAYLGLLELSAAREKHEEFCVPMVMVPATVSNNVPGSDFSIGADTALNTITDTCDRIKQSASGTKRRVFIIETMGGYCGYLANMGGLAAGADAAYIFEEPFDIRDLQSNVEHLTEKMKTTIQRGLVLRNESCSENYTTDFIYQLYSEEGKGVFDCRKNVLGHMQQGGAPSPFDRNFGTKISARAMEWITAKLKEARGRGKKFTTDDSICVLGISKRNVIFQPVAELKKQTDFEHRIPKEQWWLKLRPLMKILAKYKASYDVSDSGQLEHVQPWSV

[7] = target: T4, GSDMD pore-forming fragment (Homo sapiens, UniProt P57764); experiment: TR-FRET liposome permeabilization by GSDMD pore-forming fragment; assay type: biochemical; details: liposomes exposed to caspase-4 and GSDMD
T4 sequence (P57764 1-275 limits assumed): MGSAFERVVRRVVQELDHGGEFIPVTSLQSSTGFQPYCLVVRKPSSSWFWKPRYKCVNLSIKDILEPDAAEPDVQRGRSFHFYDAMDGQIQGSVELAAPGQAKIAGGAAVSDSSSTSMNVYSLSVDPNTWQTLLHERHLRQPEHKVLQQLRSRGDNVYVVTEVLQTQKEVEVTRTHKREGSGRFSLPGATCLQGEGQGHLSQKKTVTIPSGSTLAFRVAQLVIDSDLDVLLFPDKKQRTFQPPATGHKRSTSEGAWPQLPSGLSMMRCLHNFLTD
Protocol: (§1) FIG. 1. […] LDH (A) or IL-1β (B) released from primary human monocytes. Bars show the mean±s.e.m. of monocytes from 3 donors. (C) Western blots of monocytes at 1 h after electroporation with LPS. FL, full length GSDMD. NT, N-terminal fragment of GSDMD. Results representative of 3 independent experiments. (D) Coomassie blue staining of recombinant GSDMD. Results representative of 3 independent experiments. (E) TR-FRET assay measuring Europium-labeled biotin released from liposomes exposed to caspase-4 and GSDMD. Symbols indicate the mean±s.d. of 3 independent experiments. (F-G) Percentage of polymorphonuclear leukocytes (PMNs) undergoing NETosis induced by PMA (F) or the stimuli indicated (G). Data are the mean±s.d. of cells from 3 donors. (H) ROS production by PMNs. Bars show the mean±s.e.m. of PMNs from 3 donors. P-values (Two-way ANOVA, means compared to medium alone) are shown if P<0.05. (I) Percentage of PMNs undergoing PMA-induced NETosis. The x-axis indicates when NA-11 was added relative to the addition of PMA (t=0). Bars show the mean±s.e.m. of PMNs from 3 donors. P-values (one-way ANOVA, means compared to medium alone) are shown if P<0.05.
(§2) LDC7559 was reported to block the pore-forming activity of GSDMD (Sollberger et al., 2018). The ability to inhibit GSDMD-dependent pyroptosis in primary human monocytes and human monocytic THP-1 cells was tested (FIG. 1A-C).

[8] = target: T5, GSDMD (Homo sapiens, UniProt P57764); experiment: Western blot of LPS-induced cleavage of GSDMD in monocytes; assay type: cell-based; details: monocytes after electroporation with LPS
T5 construct: Western blots of monocytes at 1 h after electroporation with LPS; endogenous in cells; host or cells: primary human monocytes
T5 sequence (P57764 1-484): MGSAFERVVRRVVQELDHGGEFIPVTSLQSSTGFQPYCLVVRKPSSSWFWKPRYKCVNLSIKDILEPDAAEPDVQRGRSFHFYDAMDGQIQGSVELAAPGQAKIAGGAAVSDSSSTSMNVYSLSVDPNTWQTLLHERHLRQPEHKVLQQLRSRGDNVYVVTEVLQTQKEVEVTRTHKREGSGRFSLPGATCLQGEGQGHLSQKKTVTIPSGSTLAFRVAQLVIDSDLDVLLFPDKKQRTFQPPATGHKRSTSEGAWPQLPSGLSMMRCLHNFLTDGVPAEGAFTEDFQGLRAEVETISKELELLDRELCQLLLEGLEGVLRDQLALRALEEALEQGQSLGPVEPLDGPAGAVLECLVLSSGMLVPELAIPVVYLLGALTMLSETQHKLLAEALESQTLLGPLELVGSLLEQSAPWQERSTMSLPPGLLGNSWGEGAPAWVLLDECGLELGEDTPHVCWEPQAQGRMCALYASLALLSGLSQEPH
Protocol: as §1, §2

[9] = tested on: GSDMD-dependent release of interleukin-1β (IL-1β) from monocytes; experiment: GSDMD-dependent release of IL-1β from monocytes; assay type: cell-based, human; details: in response to nigericin or poly(dA-dT)
Protocol: as §1, §2

[10] = target: T6, recombinant GSDMD / caspase-4 (Homo sapiens, UniProt P57764); experiment: Cleavage of recombinant GSDMD by caspase-4; assay type: biochemical
T6 sequence (P57764 1-484): T5 sequence (P57764 1-484)
Protocol: as §1, §2

[11] = tested on: GSDMD-dependent pyroptosis in primary human monocytes and human monocytic THP-1 cells; experiment: GSDMD-dependent pyroptosis, LDH release; assay type: cell-based; details: induced by nigericin, cytoplasmic LPS or cytoplasmic poly(dA-dT)
Protocol: as §1, §2

Row | Compound | IC50 [1] [nM] | IC50 ([2]; Homo sapiens, Neutrophil, NETosis, SYTOX Green-stained neutrophils, PMA-stimulated) [nM] | 5 uM (% NETosis) ([2]; compound at 5 uM, NET-forming cells as percentage of total cells, vehicle 79.66, untreated 14.54) [%] | NETosis (qualitative) [2] | agonism of PFKM [3] | agonism/activation of PFKL [4] | NOX2-dependent oxidative burst [5] | agonism of PFKP [6] | liposome permeabilization by GSDMD pore-forming fragment [7] | LPS-induced cleavage of GSDMD (Western blotting) [8] | GSDMD-dependent release of IL-1β [9] | cleavage of recombinant GSDMD by caspase-4 [10] | GSDMD-dependent pyroptosis (LDH release) [11]
1 | CC(=O)Nc1ccc2c(c1)OCc1cc(-c3ccccc3C#CCCCO)nn1C2 [Example 6, N-(2-(2-(5-hydroxypent-1-yn-1-yl)phenyl)-4H,10H-benzo[f]pyrazolo[5,1-c][1,4]oxazepin-7-yl)acetamide] | 26 | 4 ± 0.5 | 58.67 | inhibit NETosis | failed to agonize | activating | inhibit | failed to agonize | – | – | – | – | –
2 | COc1ccccc1-c1cc2n(n1)Cc1ccc(NC(C)=O)cc1OC2 [LDC7559, N-(2-(2-methoxyphenyl)-4H,10H-benzo[f]pyrazolo[5,1-c][1,4]oxazepin-7-yl)acetamide] | – | – | – | inhibit NETosis | – | activating; also recorded: agonize | inhibit; also recorded: suppress | – | Nor did it prevent | did not prevent | occurred normally | did not inhibit | did not alter
